{"source": "ChEMBL document CHEMBL5360585", "about": "“Spectasterols, Aromatic Ergosterols with 6/6/6/5/5, 6/6/6/6, and 6/6/6/5 Ring Systems from Aspergillus spectabilis” (J Nat Prod, 2023)", "key": {"HL-60 [1]": {"tested_on": "HL-60", "experiment": "Cytotoxicity against human HL-60 cells assessed as inhibition of cell growth incubated for 48 hrs by CCK8 assay", "assay_type": "functional, cell-based", "conditions": "HL-60, 48 h"}, "HL-60 [2]": {"tested_on": "HL-60", "experiment": "Induction of cell cycle arrest in human HL-60 cells assessed as accumulation of G1 phase cells at 14 uM incubated for 48 hrs (reference value: 42.0%)", "assay_type": "functional"}, "SU-DHL-2": {"tested_on": "SU-DHL-2", "experiment": "Cytotoxicity against human SUDHL2 cells assessed as inhibition of cell growth incubated for 48 hrs by CCK8 assay", "assay_type": "functional, cell-based", "conditions": "SU-DHL-2, 48 h"}, "RAW264.7 [3]": {"tested_on": "RAW264.7", "experiment": "Antiinflammatory activity in LPS-induced mouse RAW264.7 cells assessed as reduction in IL-1beta mRNA expression at 5 to 20 uM incubated for 24 hrs by qRT-PCR analysis", "assay_type": "functional, cell-based", "conditions": "dose 5-20 µM"}, "HL-60 [4]": {"tested_on": "HL-60", "experiment": "Induction of cell cycle arrest in human HL-60 cells assessed as accumulation of G1 phase cells at 7 uM incubated for 48 hrs (reference value: 42.0%)", "assay_type": "functional"}, "HL-60 [5]": {"tested_on": "HL-60", "experiment": "Induction of apoptosis in human HL-60 cells assessed as late apoptotic cells at 7 uM incubated for 48 hrs by Annexin V-FITC/PI staining based flow cytometric analysis (reference value: 4.53%)", "assay_type": "functional"}, "HL-60 [6]": {"tested_on": "HL-60", "experiment": "Induction of cell cycle arrest in human HL-60 cells assessed as G2 phase cells at 14 uM incubated for 48 hrs (reference value: 23.7%)", "assay_type": "functional"}, "HL-60 [7]": {"tested_on": "HL-60", "experiment": "Induction of apoptosis in human HL-60 cells assessed as early apoptotic cells at 14 uM incubated for 48 hrs by Annexin V-FITC/PI staining based flow cytometric analysis (reference value: 11.0%)", "assay_type": "functional"}, "HL-60 [8]": {"tested_on": "HL-60", "experiment": "Induction of apoptosis in human HL-60 cells assessed as early apoptotic cells at 7 uM incubated for 48 hrs by Annexin V-FITC/PI staining based flow cytometric analysis (reference value: 11.0%)", "assay_type": "functional"}, "HL-60 [9]": {"tested_on": "HL-60", "experiment": "Induction of apoptosis in human HL-60 cells assessed as late apoptotic cells at 14 uM incubated for 48 hrs by Annexin V-FITC/PI staining based flow cytometric analysis (reference value: 4.53%)", "assay_type": "functional"}, "HL-60 [10]": {"tested_on": "HL-60", "experiment": "Induction of apoptosis in human HL-60 cells assessed as necrotic cells at 14 uM incubated for 48 hrs by Annexin V-FITC/PI staining based flow cytometric analysis (reference value: 0.39%)", "assay_type": "functional"}, "RAW264.7 [11]": {"tested_on": "RAW264.7", "experiment": "Antiinflammatory activity in LPS-induced mouse RAW264.7 cells assessed as reduction in COX2 mRNA expression at 5 to 20 uM incubated for 24 hrs by qRT-PCR analysis", "assay_type": "functional, cell-based", "conditions": "dose 5-20 µM"}, "RAW264.7 [12]": {"tested_on": "RAW264.7", "experiment": "Antiinflammatory activity in mouse RAW264.7 cells assessed as inhibition of LPS-induced NO production preincubated with compound for 1 hrs followed by LPS stimulation and measured after 24 hrs by Griess reagent based method", "assay_type": "functional, cell-based"}, "RAW264.7 [13]": {"tested_on": "RAW264.7", "experiment": "Antiinflammatory activity in LPS-induced mouse RAW264.7 cells assessed as reduction in iNOS mRNA expression at 5 to 20 uM incubated for 24 hrs by qRT-PCR analysis", "assay_type": "functional, cell-based", "conditions": "dose 5-20 µM"}, "HL-60 [14]": {"tested_on": "HL-60", "experiment": "Induction of cell cycle arrest in human HL-60 cells assessed as G2 phase cells at 7 uM incubated for 48 hrs (reference value: 23.7%)", "assay_type": "functional"}, "HL-60 [15]": {"tested_on": "HL-60", "experiment": "Induction of apoptosis in human HL-60 cells assessed as viable cells at 14 uM incubated for 48 hrs by Annexin V-FITC/PI staining based flow cytometric analysis (reference value: 84.1%)", "assay_type": "functional", "conditions": "read-out: Activity"}, "HL-60 [16]": {"tested_on": "HL-60", "experiment": "Induction of cell cycle arrest in human HL-60 cells assessed as S phase cells at 14 uM incubated for 48 hrs (reference value: 32.3%)", "assay_type": "functional"}, "HL-60 [17]": {"tested_on": "HL-60", "experiment": "Induction of apoptosis in human HL-60 cells assessed as viable cells at 7 uM incubated for 48 hrs by Annexin V-FITC/PI staining based flow cytometric analysis (reference value: 84.1%)", "assay_type": "functional", "conditions": "read-out: Activity"}, "HL-60 [18]": {"tested_on": "HL-60", "experiment": "Induction of cell cycle arrest in human HL-60 cells assessed as S phase cells at 7 uM incubated for 48 hrs (reference value: 32.3%)", "assay_type": "functional"}, "HL-60 [19]": {"tested_on": "HL-60", "experiment": "Induction of apoptosis in human HL-60 cells assessed as necrotic cells at 7 uM incubated for 48 hrs by Annexin V-FITC/PI staining based flow cytometric analysis (reference value: 0.39%)", "assay_type": "functional"}, "RAW264.7 [20]": {"tested_on": "RAW264.7", "experiment": "Antiinflammatory activity in mouse RAW264.7 cells assessed as inhibition of LPS-induced nuclear translocation of NF-kappaB p65 preincubated with compound for 1 hrs followed by LPS stimulation and measured after 24 hrs by DAPI staining based immunofluorescence analysis", "assay_type": "functional, cell-based", "conditions": "dose 5-20 µM, time 25.0 hrs"}, "RAW264.7 [21]": {"tested_on": "RAW264.7", "experiment": "Antiinflammatory activity in LPS-induced mouse RAW264.7 cells assessed as reduction in COX-2 protein expression by Western blot analysis", "assay_type": "functional, cell-based", "conditions": "dose 5-20 µM"}}, "note": "Calls of active or inactive are those of the source. No cut-off for these calls is given here.", "data": [{"smiles": "Cc1cc2c(c3c1C[C@@H](O)CC3)CC[C@@]1(C)[C@H]2CCC(=O)[C@@]1(C)/C=C/[C@H](C)C(C)C", "values": [{"measurement": "IC50", "setting": "HL-60 [1]", "result": 8.7, "unit": "µM"}, {"measurement": "Activity", "setting": "HL-60 [2]", "result": 62.3, "unit": "%"}, {"measurement": "IC50", "setting": "SU-DHL-2", "result": 6.9, "unit": "µM"}, {"measurement": "Activity", "setting": "RAW264.7 [3]", "result": "Active"}, {"measurement": "Activity", "setting": "HL-60 [4]", "result": 53.9, "unit": "%"}, {"measurement": "Activity", "setting": "HL-60 [5]", "result": 11, "unit": "%"}, {"measurement": "Activity", "setting": "HL-60 [6]", "result": 9.7, "unit": "%"}, {"measurement": "Activity", "setting": "HL-60 [7]", "result": 21.9, "unit": "%"}, {"measurement": "Activity", "setting": "HL-60 [8]", "result": 12.1, "unit": "%"}, {"measurement": "Activity", "setting": "HL-60 [9]", "result": 53.8, "unit": "%"}, {"measurement": "Activity", "setting": "HL-60 [10]", "result": 2.95, "unit": "%"}, {"measurement": "Activity", "setting": "RAW264.7 [11]", "result": "Active"}, {"measurement": "IC50", "setting": "RAW264.7 [12]", "result": 19.3, "unit": "µM"}, {"measurement": "Activity", "setting": "RAW264.7 [13]", "result": "Active"}, {"measurement": "Activity", "setting": "HL-60 [14]", "result": 16.1, "unit": "%"}, {"measurement": "viability at 14 µM", "setting": "HL-60 [15]", "result": 21.3, "unit": "%"}, {"measurement": "Activity", "setting": "HL-60 [16]", "result": 24.9, "unit": "%"}, {"measurement": "viability at 7 µM", "setting": "HL-60 [17]", "result": 76.3, "unit": "%"}, {"measurement": "Activity", "setting": "HL-60 [18]", "result": 24.7, "unit": "%"}, {"measurement": "Activity", "setting": "HL-60 [19]", "result": 0.57, "unit": "%"}, {"measurement": "Activity", "setting": "RAW264.7 [20]", "result": "Dose-Dependent Effect"}, {"measurement": "Activity", "setting": "RAW264.7 [21]", "result": "Dose-Dependent Effect"}]}]}
